Measured values as given in patent US20260028348A1, “MODULATORS OF TNF-ALPHA ACTIVITY” (Forward Therapeutics, Inc., priority 2023, published 2026).

test system: HEK Blue™ TNFα reporter cells; assay: TNF-α Induced HEK Blue Cellular Assay; type: cell-based; conditions: TNF-α stimulated HEK Blue TNFα reporter cells, 24 hrs, secreted alkaline phosphatase (QUANTI-Blue, 620 nm)
Protocol: Test articles were diluted in DMSO and serially diluted into 384 well assay plate (Corning 3765), at final concentrations ranging from […] to 0.5 nM. HEK Blue™ TNFα reporter cells were added at a final density of 10,000 cell per well in assay media [DMEM (Gibco, cat #21063-029), 10% fetal bovine serum (ExcelBio, cat #FND500), 1% Penicillin-Streptomycin (Solarbio, cat #P1400-100]. TNF-α (R&D 210-TA-020/CF) was then added to the assay plate at a final concentration of […]. This plate was then incubated for 24 hrs at 37° C. and 5% CO2. Secreted alkaline phosphatase expression was then measured using QUANTI-Blue™(Invivogen), according to manufacturer instructions and read on an Envision microplate reader at 620 nm.
Inhibition data for test compound over a range of concentration was plotted as percentage inhibition of the test compound (100%=maximum inhibition). IC50 values were determined after correcting for background [(sample read-mean of low control)/(mean of high control-mean of low control)] whereby the low control is DMSO without stimulation and high control is DMSO with stimulation. The IC50 is defined as the concentration of test compound which produces […] and was quantified using the 4 parameter logistic equation to fit the data.

SMILES	IC50 [nM]
CN1C(=O)c2cccc(OC(F)F)c2[C@H]2C[C@@H]1c1nc3ccc(-c4cnc5c(c4)CCC5(C)O)cc3n12 (stereo partly drawn) [Example 1, (1R,11R)-18-(difluoromethoxy)-5-{7-hydroxy-7-methyl-5H,6H-cyclopenta[b]pyridin-3-yl}-12-methyl-2,9,12-triazapentacyclo[9.8.1.0^{2,10}.0^{3,8}.0^{14,19}]icosa-3(8),4,6,9,14(19),15,17-heptaen-13-one]	< 100
[2H]C([2H])([2H])N1C(=O)c2cccc(OC(F)F)c2[C@H]2C[C@@H]1c1nc3ccc(-c4cnc5c(c4)CC[C@@]5(C)O)cc3n12 (single isomer, unassigned) [Example 33]	< 100
CN1C(=O)c2cccc(OC(F)F)c2[C@H]2C[C@@H]1c1nc3ccc(-c4cnc5c(c4)CC[C@@]5(C)O)cc3n12 (single isomer, unassigned) [Example 11]	< 100
CN1C(=O)c2cccc(OC(F)F)c2[C@H]2C[C@@H]1c1nc3ccc(-c4ccc5c(c4)NC(=O)C5(C)O)cc3n12 (stereo partly drawn) [Example 21, (1R,11R)-18-(difluoromethoxy)-5-(3-hydroxy-3-methyl-2-oxo-1H-indol-6-yl)-12-methyl-2,9,12-triazapentacyclo[9.8.1.0^{2,10}.0^{3,8}.0^{14,19}]icosa-3(8),4,6,9,14(19),15,17-heptaen-13-one]	< 100
CN1C(=O)c2cccc(OC(F)F)c2[C@H]2C[C@@H]1c1nc3ccc(-c4cnc5c(c4)CC[C@]5(N)CO)cc3n12 (single isomer, unassigned) [Example 36]	< 100
[2H]C([2H])([2H])N1C(=O)c2cccc(OC(F)F)c2[C@H]2C[C@@H]1c1nc3ccc(-c4cnc5c(c4)OCC[C@@]5(C)O)nc3n12 (single isomer, unassigned) [Example 69]	10000 to 30000
[2H]C([2H])([2H])N1C(=O)c2cccc(OC(F)F)c2[C@H]2C[C@@H]1c1nc3ccc(-c4cnc5c(c4)OCC5(C)O)cc3n12 (stereo partly drawn) [Example 44, (7R,14R)-1-(difluoromethoxy)-11-(3-hydroxy-3-methyl-2,3-dihydrofuro[3,2-b]pyridin-6-yl)-6-(methyl-d3)-6,7-dihydro-7,14-methanobenzo[f]benzo[4,5]imidazo[1,2-a][1,4]diazocin-5(14H)-one]	< 100
[2H]C([2H])([2H])N1C(=O)c2cccc(OC(F)F)c2[C@H]2C[C@@H]1c1nc3ccc(-c4cnc5c(c4)OCC[C@]5(C)O)c(F)c3n12 (single isomer, unassigned) [Example 52]	< 100
[2H]C([2H])([2H])N1C(=O)c2cccc(OC(F)F)c2[C@H]2C[C@@H]1c1nc3ccc(-c4cnc5c(c4)OC[C@]5(C)O)c(F)c3n12 (single isomer, unassigned) [Example 54]	< 100
[2H]C([2H])([2H])N1C(=O)c2cccc(OC(F)F)c2[C@H]2C[C@@H]1c1nc3ccc(-c4cnc5c(c4)CC[C@]5(C)O)cc3n12 (single isomer, unassigned) [Example 32]	< 100
CN1C(=O)c2cccc(OC(F)F)c2[C@H]2C[C@@H]1c1nc3ccc(-c4ccc5c(c4)NC(=O)C5(C)N)cc3n12 (stereo partly drawn) [Example 31, (7R,14R)-11-(3-amino-3-methyl-2-oxoindolin-6-yl)-1-(difluoromethoxy)-6-methyl-6,7-dihydro-7,14-methanobenzo[f]benzo[4,5]imidazo[1,2-a][1,4]diazocin-5(14H)-one]	< 100
[2H]C([2H])([2H])N1C(=O)c2cccc(OC(F)F)c2[C@H]2C[C@@H]1c1nc3cc(F)c(-c4cnc5c(c4)OC[C@]5(C)N)cc3n12 (single isomer, unassigned) [Example 62]	< 100
CN1C(=O)c2cccc(OC(F)F)c2[C@H]2C[C@@H]1c1nc3ccc(-c4ccc5c(c4)OCC[C@@H]5N)cc3n12 [Example 10, (1R,11R)-5-[(4S)-4-amino-3,4-dihydro-2H-1-benzopyran-7-yl]-18-(difluoromethoxy)-12-methyl-2,9,12-triazapentacyclo[9.8.1.0^{2,10}.0^{3,8}.0^{14,19}]icosa-3(8),4,6,9,14(19),15,17-heptaen-13-one]	< 100
CN1C(=O)c2cccc(OC(F)F)c2[C@H]2C[C@@H]1c1nc3ccc(-c4cnc5c(c4)CC[C@@H]5N)cc3n12 (single isomer, unassigned) [Example 16]	< 100
CN1C(=O)c2cccc(OC(F)F)c2[C@H]2C[C@@H]1c1nc3ccc(-c4ccc5c(c4)CC[C@H]5N)cc3n12 [Example 9, (1R,11R)-5-[(1R)-1-amino-2,3-dihydro-1H-inden-5-yl]-18-(difluoromethoxy)-12-methyl-2,9,12-triazapentacyclo[9.8.1.0^{2,10}.0^{3,8}.0^{14,19}]icosa-3(8),4,6,9,14(19),15,17-heptaen-13-one]	< 100
[2H]C([2H])([2H])N1C(=O)c2cccc(OC(F)F)c2[C@H]2C[C@@H]1c1nc3ccc(-c4cnc5c(c4)OC[C@]5(C)N)c(F)c3n12 (single isomer, unassigned) [Example 66]	< 100
[2H]C([2H])([2H])N1C(=O)c2cccc(OC(F)F)c2[C@H]2C[C@@H]1c1nc3ccc(-c4cnc5c(c4)NC(=O)[C@]5(C)O)cc3n12 (single isomer, unassigned) [Example 42]	< 100
[2H]C([2H])([2H])N1C(=O)c2cccc(OC(F)F)c2[C@H]2C[C@@H]1c1nc3ccc(-c4cnc5c(c4)OC[C@@]5(C)N)cc3n12 (single isomer, unassigned) [Example 56]	< 100
CN1C(=O)c2cccc(OC(F)F)c2[C@H]2C[C@@H]1c1nc3ccc(-c4cnc5c(c4)OCC[C@@H]5N)cc3n12 [Example 19, (1R,11R)-5-[(4S)-4-amino-2H,3H,4H-pyrano[3,2-b]pyridin-7-yl]-18-(difluoromethoxy)-12-methyl-2,9,12-triazapentacyclo[9.8.1.0^{2,10}.0^{3,8}.0^{14,19}]icosa-3(8),4,6,9,14(19),15,17-heptaen-13-one]	< 100
CN1C(=O)c2cccc(OC(F)F)c2[C@H]2C[C@@H]1c1nc3ccc(-c4cc(F)c5c(c4)CC[C@@H]5N)cc3n12 [Example 7, (1R,11R)-5-[(1S)-1-amino-7-fluoro-2,3-dihydro-1H-inden-5-yl]-18-(difluoromethoxy)-12-methyl-2,9,12-triazapentacyclo[9.8.1.0^{2,10}.0^{3,8}.0^{14,19}]icosa-3(8),4,6,9,14(19),15,17-heptaen-13-one]	< 100
N[C@H]1COc2cc(-c3ccc4nc5n(c4c3)[C@@H]3C[C@H]5NC(=O)c4cccc(OC(F)F)c43)ccc21 [Example 4, (1R,11R)-5-[(3R)-3-amino-2,3-dihydro-1-benzofuran-6-yl]-18-(difluoromethoxy)-2,9,12-triazapentacyclo[9.8.1.0^{2,10}.0^{3,8}.0^{14,19}]icosa-3(8),4,6,9,14(19),15,17-heptaen-13-one]	< 100
[2H]C([2H])([2H])N1C(=O)c2cccc(OC(F)F)c2[C@H]2C[C@@H]1c1nc3ccc(-c4cnc5c(c4)COC[C@@]5(O)CC)cc3n12 (single isomer, unassigned) [Example 40]	10000 to 30000
[2H]C([2H])([2H])N1C(=O)c2cccc(OC(F)F)c2[C@H]2C[C@@H]1c1nc3ccc(-c4cnc5c(c4)OCCC5O)cc3n12 (stereo partly drawn) [Example 48, (7R,14R)-1-(difluoromethoxy)-11-(4-hydroxy-3,4-dihydro-2H-pyrano[3,2-b]pyridin-7-yl)-6-(methyl-d3)-6,7-dihydro-7,14-methanobenzo[f]benzo[4,5]imidazo[1,2-a][1,4]diazocin-5(14H)-one]	< 100
CN1C(=O)c2cccc(OC(F)F)c2[C@H]2C[C@@H]1c1nc3ccc(-c4cnc5c(c4)CCC5=O)cc3n12 [Example 8, (1R,11R)-18-(difluoromethoxy)-12-methyl-5-{7-oxo-5H,6H-cyclopenta[b]pyridin-3-yl}-2,9,12-triazapentacyclo[9.8.1.0^{2,10}.0^{3,8}.0^{14,19}]icosa-3(8),4,6,9,14(19),15,17-heptaen-13-one]	< 100
[2H]C([2H])([2H])N1C(=O)c2cccc(OC(F)F)c2[C@H]2C[C@@H]1c1nc3ccc(-c4cnc5c(c4)COC[C@]5(C)O)cc3n12 (single isomer, unassigned) [Example 38]	10000 to 30000
[2H]C([2H])([2H])N1C(=O)c2cccc(OC(F)F)c2[C@H]2C[C@@H]1c1nc3ccc(-c4cnc5c(c4)OC[C@@]5(C)O)c(F)c3n12 (single isomer, unassigned) [Example 53]	< 100
CN1C(=O)c2cccc(OC(F)F)c2[C@H]2C[C@@H]1c1nc3ccc(-c4cnc5c(c4)CNC5=O)cc3n12 [Example 18, (1R,11R)-18-(difluoromethoxy)-12-methyl-5-{7-oxo-5H,6H-pyrrolo[3,4-b]pyridin-3-yl}-2,9,12-triazapentacyclo[9.8.1.0^{2,10}.0^{3,8}.0^{14,19}]icosa-3(8),4,6,9,14(19),15,17-heptaen-13-one]	100 to 1000
CN1C(=O)c2cccc(OC(F)F)c2[C@H]2C[C@@H]1c1nc3ccc(-c4cnc5c(c4)CC[C@@]5(C)N)cc3n12 (single isomer, unassigned) [Example 22]	< 100
[2H]C([2H])([2H])N1C(=O)c2cccc(OC(F)F)c2[C@H]2C[C@@H]1c1nc3cc(F)c(-c4cnc5c(c4)OC[C@@]5(C)N)cc3n12 (single isomer, unassigned) [Example 61]	< 100
